# Calls of active or inactive are those of the source. No cut-off for these calls is given here.
# What was measured:
# [1] = system: SK-BR-3; assay: Induction of apoptosis in human SK-BR-3 cells assessed as live cells at 1 uM incubated for 24 hrs by Annexin V-FITC/PI staining based flow cytometry analysis (reference value: 94.6%); assay type: functional
# [2] = system: SK-BR-3; assay: Induction of apoptosis in human SK-BR-3 cells assessed as early apoptotic cells at 1 uM incubated for 24 hrs by Annexin V-FITC/PI staining based flow cytometry analysis (reference value: 2.80%); assay type: functional
# [3] = system: SK-BR-3; assay: Induction of apoptosis in human SK-BR-3 cells assessed as late apoptotic cells at 1 uM incubated for 24 hrs by Annexin V-FITC/PI staining based flow cytometry analysis (reference value: 1.11%); assay type: functional
# [4] = system: SK-BR-3; assay: Induction of apoptosis in human SK-BR-3 cells assessed as necrotic cells at 1 uM incubated for 24 hrs by Annexin V-FITC/PI staining based flow cytometry analysis (reference value: 1.49%); assay type: functional
# [5] = system: SK-BR-3; assay: Induction of apoptosis in human SK-BR-3 cells assessed as live cells at 1 uM incubated for 24 hrs in presence of SMAC peptide by Annexin V-FITC/PI staining based flow cytometry analysis (reference value: 94.6%); assay type: functional
# [6] = system: SK-BR-3; assay: Induction of apoptosis in human SK-BR-3 cells assessed as early apoptotic cells at 1 uM incubated for 24 hrs in presence of SMAC peptide by Annexin V-FITC/PI staining based flow cytometry analysis (reference value: 2.80%); assay type: functional
# [7] = system: SK-BR-3; assay: Induction of apoptosis in human SK-BR-3 cells assessed as late apoptotic cells at 1 uM incubated for 24 hrs in presence of SMAC peptide by Annexin V-FITC/PI staining based flow cytometry analysis (reference value: 1.11%); assay type: functional
# [8] = system: SK-BR-3; assay: Induction of apoptosis in human SK-BR-3 cells assessed as necrotic cells at 1 uM incubated for 24 hrs in presence of SMAC peptide by Annexin V-FITC/PI staining based flow cytometry analysis (reference value: 1.49%); assay type: functional
# [9] = system: SK-BR-3; assay: Induction of apoptosis in human SK-BR-3 cells assessed as downregulation of XIAP protein expression incubated for 24 hrs by Western blot analysis; assay type: functional, cell-based
# [10] = system: SK-BR-3; assay: Induction of apoptosis in human SK-BR-3 cells assessed as downregulation of XIAP protein expression incubated for 24 hrs in presence of SMAC peptide by Western blot analysis; assay type: functional, cell-based
# [11] = system: SK-BR-3; assay: Induction of apoptosis in human SK-BR-3 cells assessed as downregulation of cIAP1 protein expression incubated for 24 hrs by Western blot analysis; assay type: functional, cell-based
# [12] = system: SK-BR-3; assay: Induction of apoptosis in human SK-BR-3 cells assessed as downregulation of cIAP1 protein expression incubated for 24 hrs in presence of SMAC peptide by Western blot analysis; assay type: functional, cell-based
# [13] = system: SK-BR-3; assay: Antitumor activity against human SK-BR-3 cells xenografted in nude mouse assessed as inhibition of tumor growth at 8 umol/kg, iv administered every 3 days for 14 days and measured every 2 days by vernier caliper analysis; assay type: functional, organism-based; details: dose 8.0 µmol/kg, time 14.0 day
# [14] = system: SK-BR-3; assay: Antitumor activity against human SK-BR-3 cells xenografted in nude mouse assessed as inhibition of tumor growth at 8 umol/kg, iv administered every 3 days for 14 days with SMAC peptide and measured every 2 days by vernier caliper analysis; assay type: functional, organism-based; details: dose 8.0 µmol/kg, time 14.0 day
# [15] = Toxicity in nude mouse xenografted with human SK-BR-3 cells assessed as increase in ALT level at 8 umol/kg, iv administered every 3 days for 14 days; assay type: organism-based; details: in vivo, 336 h, dose 8 µmol/kg, time 14 day
# [16] = Toxicity in nude mouse xenografted with human SK-BR-3 cells assessed as increase in ALT level at 8 umol/kg, iv administered every 3 days for 14 days in presence of SMAC peptide; assay type: organism-based; details: in vivo, 336 h, dose 8 µmol/kg, time 14 day
# [17] = Toxicity in nude mouse xenografted with human SK-BR-3 cells assessed as increase in AST level at 8 umol/kg, iv administered every 3 days for 14 days; assay type: organism-based; details: in vivo, 336 h, dose 8 µmol/kg, time 14 day
# [18] = Toxicity in nude mouse xenografted with human SK-BR-3 cells assessed as increase in AST level at 8 umol/kg, iv administered every 3 days for 14 days in presence of SMAC peptide; assay type: organism-based; details: in vivo, 336 h, dose 8 µmol/kg, time 14 day
# [19] = Toxicity in nude mouse xenografted with human SK-BR-3 cells assessed as increase in blood urea nitrogen level at 8 umol/kg, iv administered every 3 days for 14 days in presence of SMAC peptide; assay type: organism-based; details: in vivo, 336 h, dose 8 µmol/kg, time 14 day
# [20] = Toxicity in nude mouse xenografted with human SK-BR-3 cells assessed as increase in creatinine level at 8 umol/kg, iv administered every 3 days for 14 days in presence of SMAC peptide; assay type: organism-based; details: in vivo, 336 h, dose 8 µmol/kg, time 14 day
# [21] = Toxicity in nude mouse xenografted with human SK-BR-3 cells assessed as change in alkaline phosphatase level at 8 umol/kg, iv administered every 3 days for 14 days; assay type: organism-based; details: in vivo, 336 h, dose 8 µmol/kg, time 14 day
# [22] = Toxicity in nude mouse xenografted with human SK-BR-3 cells assessed as change in alkaline phosphatase level at 8 umol/kg, iv administered every 3 days for 14 days in presence of SMAC peptide; assay type: organism-based; details: in vivo, 336 h, dose 8 µmol/kg, time 14 day
# [23] = Toxicity in nude mouse xenografted with human SK-BR-3 cells assessed as change in total protein level at 8 umol/kg, iv administered every 3 days for 14 days; assay type: organism-based; details: in vivo, 336 h, dose 8 µmol/kg, time 14 day
# [24] = Toxicity in nude mouse xenografted with human SK-BR-3 cells assessed as change in total protein level at 8 umol/kg, iv administered every 3 days for 14 days in presence of SMAC peptide; assay type: organism-based; details: in vivo, 336 h, dose 8 µmol/kg, time 14 day
# [25] = Toxicity in nude mouse xenografted with human SK-BR-3 cells assessed as change in albumin level at 8 umol/kg, iv administered every 3 days for 14 days; assay type: organism-based; details: in vivo, 336 h, dose 8 µmol/kg, time 14 day
# [26] = Toxicity in nude mouse xenografted with human SK-BR-3 cells assessed as change in albumin level at 8 umol/kg, iv administered every 3 days for 14 days in presence of SMAC peptide; assay type: organism-based; details: in vivo, 336 h, dose 8 µmol/kg, time 14 day
# [27] = Toxicity in nude mouse xenografted with human SK-BR-3 cells assessed as change in globulin level at 8 umol/kg, iv administered every 3 days for 14 days; assay type: organism-based; details: in vivo, 336 h, dose 8 µmol/kg, time 14 day
# [28] = Toxicity in nude mouse xenografted with human SK-BR-3 cells assessed as change in globulin level at 8 umol/kg, iv administered every 3 days for 14 days in presence of SMAC peptide; assay type: organism-based; details: in vivo, 336 h, dose 8 µmol/kg, time 14 day
compound,measurement,setting,value
CCC1(OC(=O)OCCSSC[C@@H](N)C(=O)N[C@@H](CC(N)=O)C(=O)N2CCC[C@H]2C(=O)N[C@@H](CC(N)=O)C(=O)N[C@@H](Cc2c[nH]c3ccccc23)C(=O)NCC(=O)N[C@@H](CCCNC(=N)N)C(=O)N[C@@H](CO)C(=O)N[C@@H](Cc2c[nH]c3ccccc23)C(=O)N[C@@H](Cc2ccc(O)cc2)C(=O)N[C@@H](CC(N)=O)C(=O)N[C@@H](CCC(N)=O)C(=O)N[C@@H](CCCNC(=N)N)C(=O)N[C@@H](Cc2ccccc2)C(=O)N[C@@H](CCCCN)C(=O)N[C@@H](CCCCN)C(N)=O)C(=O)OCc2c1cc1n(c2=O)Cc2cc3ccccc3nc2-1 (stereo partly drawn),Activity,[1],78.8%
same,Activity,[2],15.1%
same,Activity,[3],4.89%
same,Activity,[4],1.23%
same,Activity,[5],74.9%
same,Activity,[6],16.8%
same,Activity,[7],6.9%
same,Activity,[8],1.34%
same,Activity,[9],Active
same,Activity,[10],Active
same,Activity,[11],inactive
same,Activity,[12],inactive
same,Activity,[13],Active
same,Activity,[14],Active
same,Activity,[15],Toxic
same,Activity,[16],Toxic
same,Activity,[17],Toxic
same,Activity,[18],Toxic
same,Activity,[19],Toxic
same,Activity,[20],Toxic
same,Activity,[21],Non-Toxic
same,Activity,[22],Non-Toxic
same,Activity,[23],Non-Toxic
same,Activity,[24],Non-Toxic
same,Activity,[25],Non-Toxic
same,Activity,[26],Non-Toxic
same,Activity,[27],Non-Toxic
same,Activity,[28],Non-Toxic

# Reference: ChEMBL document CHEMBL5537151, “Design, synthesis and bioactivity evaluation of novel fusion peptides and their CPT conjugates inducing effective anti-tumor responses on HER2 positive tumors” (Eur J Med Chem, 2024)
